Measured values reported in a melting point compilation (Tetko et al.; mined from patent text by program, amines drawn as free bases though some values may be those of a salt).

`CCOC(=O)C1=Cc2cc3ccccc3n2CC1` gave a melting point of 77 to 79 °C. `O=C(O)c1ccccc1OCCCCCOc1ccccc1C(=O)O` gave a melting point of 105 to 106 °C. In the case of `CCCC12CCC(=O)C=C1c1c(cc(OC)c(Cl)c1Cl)C2=O` (centres undefined), the melting point is reported as 167 to 169 °C. For `CCCCN(C(=O)C1CCCCC1)c1nn(C)cc1Cl`, the melting point was 110 to 112 °C. Work on `COc1ccc(CC(=NNS(=O)(=O)c2ccc(C)cc2)c2cc(OC)cc(OC)c2)cc1` yielded a melting point of 120 to 121 °C. In the case of `CCC(C)c1ccccc1Sc1c(O)cc(-c2ccccc2)oc1=O` (centres undefined), the melting point is reported as 170 to 171 °C. `OC1(c2ccc3[nH]cc(CCN4CCCC4)c3c2)CCCCC1` gave a melting point of 66 to 78 °C. Work on `COc1cc2c(cc1Nc1ncc(Cl)c(Nc3ccccc3S(=O)(=O)C(C)C)n1)CCN(CC(=O)N1CCN(C)CC1)CC2` yielded a melting point of 170 °C. In the case of `O=c1ccc(S(=O)(=O)c2cc3cc(Cl)cc(Cl)c3o2)n[nH]1`, the melting point is reported as 240 to 245 °C. With `O=C(O)C(=O)c1cc2ccccc2s1` the melting point was 176 °C. With `CSc1nnc(Cc2cccnc2)c(=O)[nH]1` the melting point was 215 to 216 °C. Work on `COC(=O)C1CCCCCCCSC[C@@H](C(=O)OC)NC1=O` (some centres undefined) yielded a melting point of 156 to 164 °C. `CON1CCC2(CC1)C(=O)C(c1c(C)cc(C)cc1C)([N+](=O)[O-])C(=O)N2C` (centres undefined) showed a melting point of 127 to 129 °C. With `O=C(O)C1CCN(c2ncc(NS(=O)(=O)c3ccccc3Br)c(NCc3ccccc3)n2)CC1` the melting point was 114 to 117 °C. Work on `CCCCCCCCCCOc1ccc(C(=O)O[C@@H]2CC[C@H](NC(=O)[C@H](OC)[C@H](O)[C@@H](O)[C@H](O)/C=C/C(C)(C)C)C(=O)NC2)cc1` yielded a melting point of 70 to 74 °C. Work on `CN(C1CCN(C2CC2)CC1)S(=O)(=O)c1ccc(Nc2nccc(Nc3ccc(F)cc3)n2)cc1` yielded a melting point of 125 to 128 °C. For `CNc1nc(Nc2ccc(Cl)c(CNC(=O)OC(C)(C)C)c2)ncc1[N+](=O)[O-]`, the melting point was 195 °C. `S=c1[nH]ccn1C1CCc2ccccc21` (centres undefined) gave a melting point of 136 to 137 °C. For `CC1C[C@H]2[C@@H](O1)[C@@H](O)C(=O)N2Cc1ccccc1` (relative stereo), the melting point was 98 to 101 °C. `CC1(C)Oc2cc3c(cc2O1)OC(C)(C)O3` gave a melting point of 122 °C. `Cc1cc(-c2noc(CS(C)(=O)=O)n2)ccc1Br` gave a melting point of 130 to 132 °C. With `O=C(O)CCSCSCC(C(=O)O)c1cccc(OCc2ccc3ccc(Cl)cc3n2)c1` (centres undefined) the melting point was 142 °C. With `CC(C(=O)N(C)C)n1cc(I)c(-c2ccccc2)n1` (centres undefined) the melting point was 108 to 111 °C. `C[C@H](Nc1c(-c2c(F)cc(F)cc2F)c(Br)nc2ncnn12)C(F)(F)F` gave a melting point of 95 to 97 °C. In the case of `S=C(NCc1cccc2ccccc12)N1CCc2c([nH]c3ccccc23)C1c1ccc2c(c1)OCO2` (centres undefined), the melting point is reported as 111 to 113 °C. In the case of `C=CCc1c(OC)c(C)c2c(c1OC(C)=O)C(=O)OC2`, the melting point is reported as 101 to 102 °C. Work on `COCCNC(=O)c1ccc(CN2C(=O)C3(COc4cc5c(cc43)CCO5)c3ccccc32)cc1` (centres undefined) yielded a melting point of 182 to 183 °C. For `COC(=O)c1cc(OC)cc(OC)c1N`, the melting point was 93 to 95 °C. Work on `Cc1cc(C)nc(NC(=O)Cc2cccn2C)c1` yielded a melting point of 85 °C. Compound `O=C(Nc1cccc(C(=O)O)c1OCc1ccccc1Cl)c1ccccc1Cl` has a melting point of 182 to 183 °C. Work on `COC1C(Oc2ccc(N)cc2)OC(CO)C(OC2OC(CO)C(O)C(OC)C2O)C1O` (centres undefined) yielded a melting point of 105 °C. Compound `CN(C)C(N)=C(C#N)C#N` has a melting point of 228 to 229 °C. `CCc1cc(C)c2c(C3CCCCC3)cc(=O)n(CC)c2n1` gave a melting point of 79 to 80 °C. With `COC(=O)c1cc(C(=O)N2CCC(O)CC2)cc(-n2cccc2)c1` the melting point was 158 to 159 °C. In the case of `CC(C)OC(=O)N1CCC(c2nc3cc(-c4ccc(C(F)F)cc4)ccc3o2)CC1`, the melting point is reported as 151 to 154 °C. Compound `O=c1cc(N2CCOCC2)oc2ccc(Br)cc12` has a melting point of 147 to 149 °C. For `CC(C)CCN1C(=O)C(N)C(=O)N(c2ccccc2F)c2ccccc21` (centres undefined), the melting point was 125 to 160 °C. `CCSNc1c(C#N)c(C)nn1-c1c(Cl)cc(C(F)(F)F)cc1Cl` showed a melting point of 160 to 161 °C. `CCCn1c(=O)n2c(-c3cccs3)nnc2c2c1ncn2C` showed a melting point of 206 to 207 °C. With `CC(C)(C)OC(=O)c1ccc(OCCNC(=O)C2Cc3ccccc3N2S(=O)(=O)c2ccc(-c3ccc(F)cc3OC(F)F)cc2)cc1` (centres undefined) the melting point was 60 to 70 °C. `Clc1ccc(-n2nc(C3CC3)cc2C2CC2)nn1` showed a melting point of 102 to 105 °C. `Cc1nc(Nc2cccc(C(F)(F)F)c2)c2ccccc2c1Cc1ccc(Cl)nc1` showed a melting point of 137 °C. Compound `O=C(O)CC1CCCN(C(=O)c2ccc(N3CCCC3)cc2Cl)c2ccccc21` (centres undefined) has a melting point of 191 to 192 °C. Compound `COc1ccc(ONc2ccccc2)cc1` has a melting point of 70 to 73 °C. `CCOC(=O)C1=C(C)NC(COCCN2C(=O)c3ccccc3C2=O)=C(C(=O)OC)C1c1cccc(Cl)c1Cl` (centres undefined) showed a melting point of 165 °C. In the case of `Nc1ccc(CC(=O)Nc2ccc(Nc3ccccc3)cc2)cc1`, the melting point is reported as 162 to 163 °C. `COCC(=O)O[C@@H]1[C@@H](c2ccccc2)Nc2c(ccn3c(C)c(C)nc23)[C@@H]1OC` showed a melting point of 73 to 75 °C. `CC(=O)N1CCC(c2nn(-c3ccccc3)c3cc(F)ccc23)CC1` showed a melting point of 126 to 128 °C. For `CN1CCN(c2cc(Cl)cc3c2c(=O)n(Cc2ccc(Br)cc2)c(=O)n3Cc2ccccc2)CC1`, the melting point was 93 to 98 °C.
